The values that follow come from patent US11208412B2 (DAEGU-GYEONGBUK MEDICAL INNOVATION FOUNDATION, priority 2017, dated 2021).

Test in all cases: Kinase selectivity, DiscoverX scanMAX Kinase assay panel (% control)
Common to all, as to assay type: binding

In assay [1] the target is T1, kinases of the scanMAX Kinase assay panel (Homo sapiens, UniProt O14976).
T1 construct: purchased DiscoverX Co. (contract measurement) scanMAX Kinase assay panel
T1 sequence (O14976 1-1311): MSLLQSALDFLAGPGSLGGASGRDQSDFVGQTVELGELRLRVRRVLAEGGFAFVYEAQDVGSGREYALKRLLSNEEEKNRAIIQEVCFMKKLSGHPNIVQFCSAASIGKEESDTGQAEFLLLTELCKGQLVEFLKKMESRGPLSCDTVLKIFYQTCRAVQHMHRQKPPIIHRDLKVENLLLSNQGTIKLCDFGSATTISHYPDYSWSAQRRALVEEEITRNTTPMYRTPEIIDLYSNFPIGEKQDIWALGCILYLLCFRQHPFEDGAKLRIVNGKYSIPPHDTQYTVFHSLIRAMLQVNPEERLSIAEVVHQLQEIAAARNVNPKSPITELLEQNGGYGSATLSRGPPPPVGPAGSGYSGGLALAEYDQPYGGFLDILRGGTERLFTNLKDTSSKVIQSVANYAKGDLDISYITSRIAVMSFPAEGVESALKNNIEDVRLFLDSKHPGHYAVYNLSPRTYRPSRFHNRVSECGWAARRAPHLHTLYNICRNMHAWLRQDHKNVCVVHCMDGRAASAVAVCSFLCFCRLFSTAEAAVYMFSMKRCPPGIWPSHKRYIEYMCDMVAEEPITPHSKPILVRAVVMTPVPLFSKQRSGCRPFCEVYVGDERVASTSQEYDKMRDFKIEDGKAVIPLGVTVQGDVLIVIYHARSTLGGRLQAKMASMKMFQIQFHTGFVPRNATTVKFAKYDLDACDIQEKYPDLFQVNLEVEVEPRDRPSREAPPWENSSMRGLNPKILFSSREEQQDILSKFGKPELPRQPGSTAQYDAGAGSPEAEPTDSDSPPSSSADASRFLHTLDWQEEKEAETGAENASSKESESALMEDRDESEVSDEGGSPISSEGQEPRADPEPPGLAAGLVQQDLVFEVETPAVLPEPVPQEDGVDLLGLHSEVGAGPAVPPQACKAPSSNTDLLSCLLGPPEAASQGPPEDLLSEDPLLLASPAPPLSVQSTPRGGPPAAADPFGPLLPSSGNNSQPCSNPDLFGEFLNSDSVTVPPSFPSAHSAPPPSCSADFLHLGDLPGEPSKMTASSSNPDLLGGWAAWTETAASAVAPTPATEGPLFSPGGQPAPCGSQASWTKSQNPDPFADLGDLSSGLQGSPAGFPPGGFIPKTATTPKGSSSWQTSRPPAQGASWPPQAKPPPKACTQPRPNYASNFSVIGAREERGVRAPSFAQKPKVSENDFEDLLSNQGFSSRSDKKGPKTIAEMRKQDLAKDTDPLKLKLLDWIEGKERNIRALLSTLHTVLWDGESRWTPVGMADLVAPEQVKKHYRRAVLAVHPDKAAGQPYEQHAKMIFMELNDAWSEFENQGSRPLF
The settings on record: GAK; 1 uM. Put shortly: (§1)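 Read-out is % control, normalised so a positive-control compound sits at 0% and DMSO at 100%: (test − positive)/(negative − positive)×100. Each kinase received the compound at 1 uM in DMSO. A value below 35% counts as activity.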

For assay [2], the target named is T2, kinases of the scanMAX Kinase assay panel (Homo sapiens, UniProt P51451).
T2 construct: purchased DiscoverX Co. (contract measurement) scanMAX Kinase assay panel
The settings on record: BLK; 1 uM. Put shortly: as §1

The target of assay [3] is T3, kinases of the scanMAX Kinase assay panel (Homo sapiens, UniProt P04629).
T3 construct: purchased DiscoverX Co. (contract measurement) scanMAX Kinase assay panel
The settings on record: kinase TRKA; 1 uM in DMSO. A digest of the protocol: as §1

Assay [4] deals with T4, kinases of the scanMAX Kinase assay panel (Homo sapiens, UniProt Q15139).
T4 construct: purchased DiscoverX Co. (contract measurement) scanMAX Kinase assay panel
T4 sequence (Q15139 1-912): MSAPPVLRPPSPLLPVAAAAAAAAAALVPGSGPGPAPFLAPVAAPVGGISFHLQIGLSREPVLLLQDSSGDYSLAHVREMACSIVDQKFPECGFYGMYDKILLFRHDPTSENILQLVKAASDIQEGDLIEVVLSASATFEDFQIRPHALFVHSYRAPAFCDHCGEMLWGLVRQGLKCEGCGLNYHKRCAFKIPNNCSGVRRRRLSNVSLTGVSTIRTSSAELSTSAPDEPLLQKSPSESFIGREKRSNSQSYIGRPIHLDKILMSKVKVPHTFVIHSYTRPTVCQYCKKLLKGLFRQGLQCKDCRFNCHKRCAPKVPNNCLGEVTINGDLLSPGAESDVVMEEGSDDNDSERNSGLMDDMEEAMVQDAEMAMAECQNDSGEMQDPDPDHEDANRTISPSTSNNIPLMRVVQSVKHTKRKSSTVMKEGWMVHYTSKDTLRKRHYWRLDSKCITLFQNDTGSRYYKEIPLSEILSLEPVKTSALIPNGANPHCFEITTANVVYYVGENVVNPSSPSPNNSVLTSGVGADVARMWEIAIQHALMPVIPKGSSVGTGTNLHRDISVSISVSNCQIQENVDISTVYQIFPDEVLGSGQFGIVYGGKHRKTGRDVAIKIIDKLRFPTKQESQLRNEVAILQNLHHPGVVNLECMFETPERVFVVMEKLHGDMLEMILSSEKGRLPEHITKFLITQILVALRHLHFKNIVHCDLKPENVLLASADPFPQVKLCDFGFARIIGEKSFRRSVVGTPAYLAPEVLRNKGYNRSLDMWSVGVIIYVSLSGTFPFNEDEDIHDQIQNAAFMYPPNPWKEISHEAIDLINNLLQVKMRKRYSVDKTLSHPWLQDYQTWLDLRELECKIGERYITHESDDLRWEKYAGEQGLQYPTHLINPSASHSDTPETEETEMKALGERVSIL
The note with it: PRKD1; 1 uM. A digest of the protocol: as §1

The target in assay [5] is T5, kinases of the scanMAX Kinase assay panel (Homo sapiens, UniProt P07949).
T5 construct: purchased DiscoverX Co. (contract measurement) scanMAX Kinase assay panel
The settings on record: kinase RET; 1 uM in DMSO. A digest of the protocol: as §1

The target in assay [6] is T6, kinases of the scanMAX Kinase assay panel (Homo sapiens, UniProt Q96J92).
T6 construct: purchased DiscoverX Co. (contract measurement) scanMAX Kinase assay panel
The settings on record: kinase WNK4; 1 uM in DMSO. A digest of the protocol: as §1

T6 sequence (Q96J92 whole entry): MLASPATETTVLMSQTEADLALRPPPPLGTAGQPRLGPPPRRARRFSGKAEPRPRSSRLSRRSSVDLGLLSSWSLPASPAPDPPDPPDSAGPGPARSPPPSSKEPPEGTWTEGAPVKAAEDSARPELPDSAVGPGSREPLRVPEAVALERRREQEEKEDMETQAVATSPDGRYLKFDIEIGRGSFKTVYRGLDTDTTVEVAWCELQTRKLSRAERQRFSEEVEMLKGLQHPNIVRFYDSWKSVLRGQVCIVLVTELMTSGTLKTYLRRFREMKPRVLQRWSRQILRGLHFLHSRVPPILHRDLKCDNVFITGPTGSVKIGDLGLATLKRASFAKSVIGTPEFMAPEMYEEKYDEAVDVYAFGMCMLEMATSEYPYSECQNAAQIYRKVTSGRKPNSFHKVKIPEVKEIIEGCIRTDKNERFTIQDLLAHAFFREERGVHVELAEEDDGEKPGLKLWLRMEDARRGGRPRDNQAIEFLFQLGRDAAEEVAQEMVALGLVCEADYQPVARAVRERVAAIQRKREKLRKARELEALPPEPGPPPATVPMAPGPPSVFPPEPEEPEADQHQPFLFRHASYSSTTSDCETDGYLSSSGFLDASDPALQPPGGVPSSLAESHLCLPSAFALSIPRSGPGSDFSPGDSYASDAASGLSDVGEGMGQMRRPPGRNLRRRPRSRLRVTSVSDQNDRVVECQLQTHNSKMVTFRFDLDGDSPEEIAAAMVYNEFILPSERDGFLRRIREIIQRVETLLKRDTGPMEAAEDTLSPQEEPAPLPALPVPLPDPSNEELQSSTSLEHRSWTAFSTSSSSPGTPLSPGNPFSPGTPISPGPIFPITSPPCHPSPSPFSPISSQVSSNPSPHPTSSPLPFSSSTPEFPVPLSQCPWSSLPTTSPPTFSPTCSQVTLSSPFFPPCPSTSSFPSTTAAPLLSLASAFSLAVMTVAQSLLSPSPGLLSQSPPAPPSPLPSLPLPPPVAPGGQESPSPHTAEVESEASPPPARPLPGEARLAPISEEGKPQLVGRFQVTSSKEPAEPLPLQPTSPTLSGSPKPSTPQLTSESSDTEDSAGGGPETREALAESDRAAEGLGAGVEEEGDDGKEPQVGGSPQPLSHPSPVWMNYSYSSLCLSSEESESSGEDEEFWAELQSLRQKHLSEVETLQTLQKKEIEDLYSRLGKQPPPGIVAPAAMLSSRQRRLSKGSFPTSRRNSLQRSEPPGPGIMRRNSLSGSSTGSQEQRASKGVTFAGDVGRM
T2 sequence (P51451 whole entry): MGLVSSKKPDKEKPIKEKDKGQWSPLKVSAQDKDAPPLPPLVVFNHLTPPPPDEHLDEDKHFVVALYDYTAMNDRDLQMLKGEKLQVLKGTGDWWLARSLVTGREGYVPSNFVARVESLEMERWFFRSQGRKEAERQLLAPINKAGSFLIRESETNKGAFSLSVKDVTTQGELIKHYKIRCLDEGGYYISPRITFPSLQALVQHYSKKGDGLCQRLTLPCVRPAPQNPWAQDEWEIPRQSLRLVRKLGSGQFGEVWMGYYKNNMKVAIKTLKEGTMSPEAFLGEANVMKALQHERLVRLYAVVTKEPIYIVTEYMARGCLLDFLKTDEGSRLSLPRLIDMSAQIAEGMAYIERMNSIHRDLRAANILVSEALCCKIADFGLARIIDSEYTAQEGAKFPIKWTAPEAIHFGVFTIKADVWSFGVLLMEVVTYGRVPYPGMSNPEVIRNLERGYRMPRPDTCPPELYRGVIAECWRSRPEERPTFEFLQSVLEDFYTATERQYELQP
T5 sequence (P07949 29-1114): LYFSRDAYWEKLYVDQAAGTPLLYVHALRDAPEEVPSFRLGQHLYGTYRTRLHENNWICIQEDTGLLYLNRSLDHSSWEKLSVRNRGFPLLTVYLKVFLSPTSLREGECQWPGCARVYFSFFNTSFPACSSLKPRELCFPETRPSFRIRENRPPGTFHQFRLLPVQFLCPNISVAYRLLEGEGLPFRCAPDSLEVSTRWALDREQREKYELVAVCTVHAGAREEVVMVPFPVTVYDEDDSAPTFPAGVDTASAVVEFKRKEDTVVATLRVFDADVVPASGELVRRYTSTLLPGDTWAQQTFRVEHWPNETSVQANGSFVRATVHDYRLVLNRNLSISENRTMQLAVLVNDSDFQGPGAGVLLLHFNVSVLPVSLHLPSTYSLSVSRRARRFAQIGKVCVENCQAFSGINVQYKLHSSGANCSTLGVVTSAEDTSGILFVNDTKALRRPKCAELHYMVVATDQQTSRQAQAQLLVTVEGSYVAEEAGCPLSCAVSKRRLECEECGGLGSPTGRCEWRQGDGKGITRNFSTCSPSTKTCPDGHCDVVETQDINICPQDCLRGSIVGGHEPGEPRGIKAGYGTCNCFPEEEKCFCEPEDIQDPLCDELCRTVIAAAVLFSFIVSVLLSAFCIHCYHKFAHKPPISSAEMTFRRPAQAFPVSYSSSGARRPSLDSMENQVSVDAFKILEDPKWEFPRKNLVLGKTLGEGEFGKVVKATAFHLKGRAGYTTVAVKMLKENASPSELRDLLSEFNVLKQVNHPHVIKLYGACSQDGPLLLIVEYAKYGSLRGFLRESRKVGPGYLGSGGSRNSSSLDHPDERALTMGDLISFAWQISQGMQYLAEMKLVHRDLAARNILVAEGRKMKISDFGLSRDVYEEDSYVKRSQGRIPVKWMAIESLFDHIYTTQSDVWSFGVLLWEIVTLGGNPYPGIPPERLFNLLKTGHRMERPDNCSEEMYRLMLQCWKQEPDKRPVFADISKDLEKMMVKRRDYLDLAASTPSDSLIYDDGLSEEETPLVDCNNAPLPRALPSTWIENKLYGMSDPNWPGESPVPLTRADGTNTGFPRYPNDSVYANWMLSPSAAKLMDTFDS
T3 sequence (P04629 33-796): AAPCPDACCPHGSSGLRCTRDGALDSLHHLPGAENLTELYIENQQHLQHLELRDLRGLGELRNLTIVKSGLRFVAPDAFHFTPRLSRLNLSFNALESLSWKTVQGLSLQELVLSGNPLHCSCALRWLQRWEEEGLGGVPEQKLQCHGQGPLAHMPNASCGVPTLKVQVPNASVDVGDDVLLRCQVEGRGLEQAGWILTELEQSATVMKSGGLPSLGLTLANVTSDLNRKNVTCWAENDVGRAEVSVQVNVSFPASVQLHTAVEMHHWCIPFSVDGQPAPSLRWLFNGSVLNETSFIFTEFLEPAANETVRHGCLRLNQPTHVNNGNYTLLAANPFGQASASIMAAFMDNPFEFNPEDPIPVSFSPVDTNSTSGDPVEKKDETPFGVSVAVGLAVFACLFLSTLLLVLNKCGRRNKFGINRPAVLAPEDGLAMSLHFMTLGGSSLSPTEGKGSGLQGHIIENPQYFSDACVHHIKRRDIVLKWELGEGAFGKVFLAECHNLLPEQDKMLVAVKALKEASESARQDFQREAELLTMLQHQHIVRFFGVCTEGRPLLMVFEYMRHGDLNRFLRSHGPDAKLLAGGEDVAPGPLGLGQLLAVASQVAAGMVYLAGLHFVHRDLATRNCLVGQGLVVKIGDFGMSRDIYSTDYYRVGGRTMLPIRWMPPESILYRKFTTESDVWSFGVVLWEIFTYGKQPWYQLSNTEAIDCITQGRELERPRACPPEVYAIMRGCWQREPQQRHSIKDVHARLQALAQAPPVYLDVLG

`CNc1nc(Nc2ccc(C(=O)N3CCOCC3)cc2OC)nc2[nH]cc(C#N)c12` [Example 1, 2-((2-methoxy-4-(morpholine-4-carbonyl)phenyl)amino)-4-(methylamino)-7H-pyrrolo[2,3-d]pyrimidine-5-carbonitrile]: the remaining binding at 1 µM turned out to be 11% in assay [1]; 100% in assay [2]; 67% in assay [3]; 5.7% in assay [4]; 97% in assay [5]; 81% in assay [6].

Turning to `CC1(Nc2nc(Nc3cnn([C@H]4CCN(C5COC5)C[C@@H]4F)c3Cl)nc3[nH]cc(C#N)c23)CC1` [Example 52, 2-((5-chloro-1-((3S,4S)-3-fluoro-1-(oxetane-3-yl)piperidine-4-yl)-1H-pyrazole-4-yl)amino)((1-methylcyclopropyl)amino)-7H-pyrrolo[2,3-d]pyrimidine-5-carbonitrile], the remaining binding at 1 µM was found to be 5.8% in assay [1]; 2.2% in assay [2]; 0.5% in assay [3]; 12% in assay [4]; 0% in assay [5]; 100% in assay [6].

Turning to `CCNc1nc(Nc2ccc(C(=O)N3CCC(N4CCOCC4)CC3)cc2OC)nc2[nH]cc(C(F)(F)F)c12` [Example 104, (4-((4-(ethylamino)-5-(trifluoromethyl)-7H-pyrrolo[2,3-d]pyrimidine-2-yl)amino)-3-methoxyphenyl)(4-morpholinopiperidine-1-yl)methanone], the remaining binding at 1 µM came to 1% in assay [1]; 100% in assay [2]; 98% in assay [3]; 11% in assay [4]; 98% in assay [5]; 100% in assay [6].
